The text below walks through data of PubChem BioAssay (NCI).

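Grown in 96-well plates, cells were treated for 48 hours with each compound at five concentrations. Insufficient inhibition: endpoint recorded as highest concentration tested. At the TGI there is no net growth.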 Where only a bound is given, the exact number is not on record here.

What all share (assay): NCI-60 cell line screen, 48 h
The subject of assay [1] is SK-MEL-28 melanoma.
The subject of assay [2] is SF-295 CNS.
For assay [3], the system named is CAKI-1 renal.
The test system of assay [4] is PC-3 prostate.
Assay [5] has as its system ACHN renal.
In assay [6] the test system is OVCAR-3 ovarian.
Assay [7] relates to KM12 colon.
For assay [8], the system named is NCI-H226 lung.
In assay [9] the test system is SF-539 CNS.
Assay [10] deals with DU-145 prostate.
Assay [11] relates to NCI/ADR-RES ovarian.
Assay [12] relates to HCT-116 colon.
Assay [13] has as its system NCI-H460 lung.
Assay [14] concerns U251 CNS.
Assay [15] deals with A549 NSCLC.
Assay [16] deals with SNB-75 CNS.
Assay [17] deals with OVCAR-8 ovarian.
Assay [18] concerns SF-268 CNS.
Assay [19] deals with UO-31 renal.
The test system of assay [20] is NCI-H522 lung.

Take `CC1(C)C(=O)C2(C#N)CCC1C2` (stereo not drawn): the TGI in [1], in assay [2], in assay [3], in assay [4], in assay [5] and in [6] was greater than 100 µM in each case. Also, the TGI in assay [7], in [8], in assay [9], in [10], in assay [11] and in assay [12] was greater than 100 µM each time. The TGI in assay [13], in assay [14], in assay [15], in assay [16], in assay [17] and in assay [18] was greater than 100 µM each time. In assay [19], this molecule had a TGI greater than 100 µM.
As to `Nc1cnc2c(c1)c(=O)nc1n2CCS1`, the TGI in [1], in [2], in assay [3], in assay [4], in [5] and in [6] was greater than 100 µM throughout. Moreover, the TGI in assay [7], in assay [8], in [9], in assay [10], in assay [11] and in [12] was greater than 100 µM throughout. The TGI in [13], in assay [14], in assay [15], in assay [16], in assay [17] and in assay [18] was greater than 100 µM in each case. In assay [19], this molecule came in with a TGI greater than 100 µM.
For the molecule `O=C1/C(=C\c2c(-c3ccccc3)nn(-c3ccccc3)c2O)C(c2ccccc2)=NN1c1ccccc1`, the TGI in assay [1], in assay [2], in assay [3], in assay [4], in [5] and in [6] was greater than 100 µM throughout. Further, the TGI in assay [7], in [8], in [9], in assay [10], in assay [11] and in [12] was greater than 100 µM throughout. The TGI in [13], in [14], in assay [15], in assay [16], in [17] and in assay [18] was greater than 100 µM in each case. In [19], this molecule displayed a TGI greater than 100 µM.
Take `CCCCOc1ccc(S(=O)(=O)/N=C(\NN)Nc2ccc(Cl)cc2)cc1`: the TGI is greater than 100 µM in [1]; 67.7 µM in assay [2]; 48.1 µM in [3]; 33.1 µM in assay [4]; greater than 100 µM in assay [5]; 46.8 µM in [6]. The TGI in [7] is greater than 100 µM; in assay [8] it was greater than 100 µM; in [9], 36.7 µM; in assay [10], 31.1 µM; in assay [11], 76.3 µM; in [12], 42.9 µM. Besides, the TGI amounted to 31.9 µM in [13]; 30.2 µM in assay [14]; 36.6 µM in assay [15]; 27 µM in [16]; 36.2 µM in assay [17]; 33 µM in [18]. This molecule yielded a TGI in assay [19] of 37.5 µM.
On to `NCCc1ccc2c(c1)C(=O)c1c(O)ccc(O)c1C2=O`, for which the TGI in assay [2] is greater than 74.9 µM; in [3] it was greater than 84.3 µM; in [4] it was 26.1 µM; in assay [5], greater than 53.6 µM; in [6] it was 5.66 µM; in assay [7], greater than 100 µM. In addition, the TGI in assay [8] is greater than 100 µM; in assay [9], 7.97 µM; in assay [10], greater than 100 µM; in assay [11], greater than 82.9 µM; in assay [12], greater than 40.3 µM; in assay [13] it was greater than 87.6 µM. Moreover, the TGI in assay [14] was greater than 30.9 µM; in assay [15], greater than 45.4 µM; in assay [16] it was 42.3 µM; in assay [17], 9.19 µM; in assay [18], 25.3 µM; in assay [19], 25.7 µM.
As for `Cc1ccccc1NC(=O)C(=O)Cc1cnc2ccccc2n1`, the TGI in assay [1], in assay [2], in assay [3], in assay [4], in [5] and in [6] was greater than 100 µM in each case. In addition, the TGI in assay [7], in assay [20], in [8], in assay [9], in [10] and in assay [11] was greater than 100 µM each time. Besides, the TGI in assay [12], in assay [13], in [14], in [15], in assay [17] and in [18] was greater than 100 µM each time. In assay [19], this molecule came in with a TGI greater than 100 µM.
